PubChem BioAssay (NCI)
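Cultured in 96-well plates, cells were exposed to test compound for 48 hours across five concentrations. Abbreviation: GI50, concentration required for 50% inhibition of growth. TGI: total growth inhibition.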

Experiments:
Assay in all cases: inhibition of tumour cell growth, NCI panel, 48 h
786-0 renal = tested on: 786-0 renal
A498 renal = tested on: A498 renal
A549 NSCLC = tested on: A549 NSCLC
ACHN renal = tested on: ACHN renal
BT-549 breast = tested on: BT-549 breast
CAKI-1 renal = tested on: CAKI-1 renal
CCRF-CEM leukemia = tested on: CCRF-CEM leukemia
COLO 205 colon = tested on: COLO 205 colon
DU-145 prostate = tested on: DU-145 prostate
EKVX NSCLC = tested on: EKVX NSCLC
HCC-2998 colon = tested on: HCC-2998 colon
HCT-116 colon = tested on: HCT-116 colon
HCT-15 colon = tested on: HCT-15 colon
HL-60(TB) leukemia = tested on: HL-60(TB) leukemia
HOP-62 NSCLC = tested on: HOP-62 NSCLC
HOP-92 NSCLC = tested on: HOP-92 NSCLC
HS 578T breast = tested on: HS 578T breast
HT29 colon = tested on: HT29 colon
IGROV1 ovarian = tested on: IGROV1 ovarian
K-562 leukemia = tested on: K-562 leukemia
KM12 colon = tested on: KM12 colon
LOX IMVI melanoma = tested on: LOX IMVI melanoma
M14 melanoma = tested on: M14 melanoma
MCF7 breast = tested on: MCF7 breast
MDA-MB-231 breast = tested on: MDA-MB-231 breast
MDA-MB-435 = tested on: MDA-MB-435
MOLT-4 leukemia = tested on: MOLT-4 leukemia
NCI-H226 lung = tested on: NCI-H226 lung
NCI-H23 lung = tested on: NCI-H23 lung

**Q.** Which results are given for `COC(=O)[C@H]1[C@@H](O)[C@@]2(O)c3c(OC)cc(OC)cc3O[C@@]2(c2ccc(OC)cc2)[C@@H]1c1ccccc1`?
**A.** GI50 (786-0 renal): 45.1 nM; TGI (786-0 renal): 267 nM; GI50 (A498 renal): 10 nM; TGI (A498 renal): 48.5 nM; GI50 (A549 NSCLC): 8.57 nM; TGI (A549 NSCLC): 177 nM; GI50 (ACHN renal): 10.2 nM; TGI (ACHN renal): 166 nM; GI50 (BT-549 breast): 39.9 nM; TGI (BT-549 breast): 213 nM; GI50 (CAKI-1 renal): 28.5 nM; TGI (CAKI-1 renal): 2720 nM; GI50 (CCRF-CEM leukemia): 14.7 nM; TGI (CCRF-CEM leukemia): 5690 nM; GI50 (COLO 205 colon): 15.3 nM; TGI (COLO 205 colon): 52 nM; GI50 (DU-145 prostate): 17.3 nM; TGI (DU-145 prostate): 207 nM; GI50 (EKVX NSCLC): 20.6 nM; TGI (EKVX NSCLC): 360 nM; GI50 (HCC-2998 colon): 8.33 nM; TGI (HCC-2998 colon): 205 nM; GI50 (HCT-116 colon): 10.2 nM; TGI (HCT-116 colon): 179 nM; GI50 (HCT-15 colon): 10.9 nM; TGI (HCT-15 colon): 447 nM; GI50 (HL-60(TB) leukemia): 18.3 nM; TGI (HL-60(TB) leukemia): 108 nM; GI50 (HOP-62 NSCLC): 11.8 nM; TGI (HOP-62 NSCLC): 101 nM; GI50 (HOP-92 NSCLC): 48 nM; TGI (HOP-92 NSCLC): 3890 nM; GI50 (HS 578T breast): 44.2 nM; TGI (HS 578T breast): 1280 nM; GI50 (HT29 colon): 7.13 nM; TGI (HT29 colon): 93.5 nM; GI50 (IGROV1 ovarian): 20.7 nM; TGI (IGROV1 ovarian): 1340 nM; GI50 (K-562 leukemia): 9.61 nM; TGI (K-562 leukemia): 6820 nM; GI50 (KM12 colon): < 10.5 nM; TGI (KM12 colon): 757 nM; GI50 (LOX IMVI melanoma): 11.5 nM; TGI (LOX IMVI melanoma): 75.9 nM; GI50 (M14 melanoma): 11.9 nM; TGI (M14 melanoma): 52.2 nM; GI50 (MCF7 breast): 6.7 nM; TGI (MCF7 breast): 231 nM; GI50 (MDA-MB-231 breast): 32.8 nM; TGI (MDA-MB-231 breast): 132 nM; GI50 (MDA-MB-435): 12.1 nM; TGI (MDA-MB-435): 626 nM; GI50 (MOLT-4 leukemia): 6.22 nM; TGI (MOLT-4 leukemia): 488 nM; GI50 (NCI-H226 lung): 11.8 nM; TGI (NCI-H226 lung): 260 nM; GI50 (NCI-H23 lung): 15.5 nM
